How the values were obtained:
[1] = target: Sodium channel protein type 9 subunit alpha (Homo sapiens, UniProt Q15858); test: Antagonist activity at recombinant human Nav1.7 expressed in HEK293 cells assessed as reduction in channel current at -60 mV holding potential after 600 secs by barracuda automated electrophysiology method; format: cell-based
[2] = target: Sodium channel protein type 5 subunit alpha (Homo sapiens, UniProt Q14524); test: Antagonist activity at recombinant human Nav1.5 expressed in HEK293 cells assessed as reduction in channel current at -50 mV holding potential after 600 secs by barracuda automated electrophysiology method; format: ADME, cell-based
Sequence of Sodium channel protein type 5 subunit alpha (Q14524 whole entry): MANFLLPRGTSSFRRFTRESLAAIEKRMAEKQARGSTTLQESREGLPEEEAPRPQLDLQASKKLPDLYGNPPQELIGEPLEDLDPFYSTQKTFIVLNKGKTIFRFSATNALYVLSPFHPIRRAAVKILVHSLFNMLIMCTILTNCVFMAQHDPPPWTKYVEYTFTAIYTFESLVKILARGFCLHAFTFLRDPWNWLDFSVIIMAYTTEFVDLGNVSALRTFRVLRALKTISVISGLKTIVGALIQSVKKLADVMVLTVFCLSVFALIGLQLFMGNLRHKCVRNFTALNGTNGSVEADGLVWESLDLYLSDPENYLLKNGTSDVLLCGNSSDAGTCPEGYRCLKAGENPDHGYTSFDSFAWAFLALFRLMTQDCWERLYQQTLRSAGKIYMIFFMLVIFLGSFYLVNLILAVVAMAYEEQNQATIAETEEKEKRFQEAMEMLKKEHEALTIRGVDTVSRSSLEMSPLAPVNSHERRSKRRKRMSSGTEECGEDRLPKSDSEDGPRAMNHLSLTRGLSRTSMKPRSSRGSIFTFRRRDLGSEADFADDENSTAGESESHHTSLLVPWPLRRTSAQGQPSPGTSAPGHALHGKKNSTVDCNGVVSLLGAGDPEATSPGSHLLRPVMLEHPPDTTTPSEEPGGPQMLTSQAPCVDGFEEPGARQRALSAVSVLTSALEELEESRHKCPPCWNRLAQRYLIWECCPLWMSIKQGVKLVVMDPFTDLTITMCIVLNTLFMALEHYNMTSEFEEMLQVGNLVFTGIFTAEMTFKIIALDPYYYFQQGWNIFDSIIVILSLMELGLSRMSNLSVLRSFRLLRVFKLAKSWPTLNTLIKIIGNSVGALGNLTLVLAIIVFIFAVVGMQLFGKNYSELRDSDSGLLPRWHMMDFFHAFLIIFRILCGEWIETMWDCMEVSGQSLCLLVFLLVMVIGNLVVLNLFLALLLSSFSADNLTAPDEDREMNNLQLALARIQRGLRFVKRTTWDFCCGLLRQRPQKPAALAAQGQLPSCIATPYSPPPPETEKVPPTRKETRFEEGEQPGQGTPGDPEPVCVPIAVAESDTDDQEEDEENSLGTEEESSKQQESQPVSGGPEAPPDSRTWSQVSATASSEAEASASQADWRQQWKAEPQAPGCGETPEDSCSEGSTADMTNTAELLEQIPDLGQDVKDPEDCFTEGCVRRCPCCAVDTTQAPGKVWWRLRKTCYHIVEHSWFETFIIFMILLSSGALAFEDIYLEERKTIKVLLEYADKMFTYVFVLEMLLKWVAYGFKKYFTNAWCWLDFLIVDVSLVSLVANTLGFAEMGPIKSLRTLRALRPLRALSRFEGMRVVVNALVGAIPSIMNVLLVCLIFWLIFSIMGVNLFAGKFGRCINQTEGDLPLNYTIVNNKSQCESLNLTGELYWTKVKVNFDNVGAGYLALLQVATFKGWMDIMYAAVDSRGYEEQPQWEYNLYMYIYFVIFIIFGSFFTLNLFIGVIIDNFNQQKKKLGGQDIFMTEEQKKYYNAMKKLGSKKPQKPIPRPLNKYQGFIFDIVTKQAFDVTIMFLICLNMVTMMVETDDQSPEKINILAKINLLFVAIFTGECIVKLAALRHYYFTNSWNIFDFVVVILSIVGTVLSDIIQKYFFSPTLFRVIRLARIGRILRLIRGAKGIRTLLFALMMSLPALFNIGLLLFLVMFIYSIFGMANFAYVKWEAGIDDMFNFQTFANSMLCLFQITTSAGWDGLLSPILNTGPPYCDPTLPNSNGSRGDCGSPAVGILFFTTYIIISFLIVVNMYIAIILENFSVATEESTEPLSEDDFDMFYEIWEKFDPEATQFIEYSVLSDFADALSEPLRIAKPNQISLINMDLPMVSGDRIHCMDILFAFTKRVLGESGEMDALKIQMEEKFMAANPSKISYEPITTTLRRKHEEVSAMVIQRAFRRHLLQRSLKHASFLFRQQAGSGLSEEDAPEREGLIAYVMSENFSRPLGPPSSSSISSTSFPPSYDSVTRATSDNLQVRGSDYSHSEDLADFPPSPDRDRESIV

Sequence of Sodium channel protein type 9 subunit alpha (Q15858 whole entry): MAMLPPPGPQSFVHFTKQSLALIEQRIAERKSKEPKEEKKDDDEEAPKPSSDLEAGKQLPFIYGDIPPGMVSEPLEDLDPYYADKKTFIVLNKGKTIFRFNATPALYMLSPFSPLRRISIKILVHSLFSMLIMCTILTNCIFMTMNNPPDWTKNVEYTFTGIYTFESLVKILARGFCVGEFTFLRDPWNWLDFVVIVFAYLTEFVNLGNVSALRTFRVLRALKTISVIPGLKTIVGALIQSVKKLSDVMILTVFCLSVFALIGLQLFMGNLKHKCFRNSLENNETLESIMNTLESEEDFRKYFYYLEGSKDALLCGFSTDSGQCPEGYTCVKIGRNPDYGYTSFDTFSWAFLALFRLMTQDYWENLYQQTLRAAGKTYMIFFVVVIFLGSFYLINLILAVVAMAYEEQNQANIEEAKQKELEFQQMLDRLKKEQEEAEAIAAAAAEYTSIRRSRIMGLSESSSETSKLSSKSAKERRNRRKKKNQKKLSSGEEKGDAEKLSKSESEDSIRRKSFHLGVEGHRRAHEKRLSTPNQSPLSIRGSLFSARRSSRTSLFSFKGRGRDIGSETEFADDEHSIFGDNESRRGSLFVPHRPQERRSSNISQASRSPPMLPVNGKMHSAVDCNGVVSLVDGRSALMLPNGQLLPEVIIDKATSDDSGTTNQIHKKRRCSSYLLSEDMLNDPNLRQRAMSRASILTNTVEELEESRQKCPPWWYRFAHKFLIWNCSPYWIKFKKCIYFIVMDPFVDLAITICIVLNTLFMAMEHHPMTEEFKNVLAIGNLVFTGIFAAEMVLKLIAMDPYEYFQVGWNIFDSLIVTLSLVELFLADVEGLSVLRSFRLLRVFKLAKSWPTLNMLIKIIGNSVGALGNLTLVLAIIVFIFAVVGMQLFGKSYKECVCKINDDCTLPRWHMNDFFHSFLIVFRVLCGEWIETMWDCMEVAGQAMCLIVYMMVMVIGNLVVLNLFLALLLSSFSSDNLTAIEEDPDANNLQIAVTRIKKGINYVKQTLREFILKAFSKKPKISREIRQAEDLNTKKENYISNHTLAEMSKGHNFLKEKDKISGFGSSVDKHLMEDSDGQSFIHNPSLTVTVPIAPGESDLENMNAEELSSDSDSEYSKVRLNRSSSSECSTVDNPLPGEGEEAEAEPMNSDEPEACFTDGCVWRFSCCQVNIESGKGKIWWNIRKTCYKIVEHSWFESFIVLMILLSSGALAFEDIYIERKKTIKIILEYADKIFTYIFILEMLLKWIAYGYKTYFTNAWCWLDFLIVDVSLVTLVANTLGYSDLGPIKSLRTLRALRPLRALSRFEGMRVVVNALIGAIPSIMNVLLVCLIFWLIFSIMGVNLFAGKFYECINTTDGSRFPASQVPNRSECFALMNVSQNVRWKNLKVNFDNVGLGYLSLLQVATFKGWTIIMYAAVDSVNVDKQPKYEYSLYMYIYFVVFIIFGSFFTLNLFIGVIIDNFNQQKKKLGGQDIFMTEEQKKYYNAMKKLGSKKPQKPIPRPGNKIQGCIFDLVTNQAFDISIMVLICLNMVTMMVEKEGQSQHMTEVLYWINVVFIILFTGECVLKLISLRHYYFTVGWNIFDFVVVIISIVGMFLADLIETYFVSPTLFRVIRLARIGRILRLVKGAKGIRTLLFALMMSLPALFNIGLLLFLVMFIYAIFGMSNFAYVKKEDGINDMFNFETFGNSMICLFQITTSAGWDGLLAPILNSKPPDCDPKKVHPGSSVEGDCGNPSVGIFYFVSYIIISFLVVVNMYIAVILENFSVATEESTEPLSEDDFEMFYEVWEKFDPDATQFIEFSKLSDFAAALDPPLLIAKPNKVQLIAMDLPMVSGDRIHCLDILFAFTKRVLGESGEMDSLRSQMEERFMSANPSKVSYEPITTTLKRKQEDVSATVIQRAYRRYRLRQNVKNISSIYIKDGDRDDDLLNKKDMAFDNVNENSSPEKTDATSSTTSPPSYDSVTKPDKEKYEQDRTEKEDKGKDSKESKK

SMILES	IC50 [1] [µM]	IC50 ([2]; hek293) [µM]	IC50 [2] [µM]
CN(C)c1noc2ccc(C3NCCOC3Oc3cc(F)c(S(=O)(=O)Nc4ncns4)cc3F)cc12 (single isomer, unassigned; isomer A)	0.07		
CC(C)[C@@H]1COC(Oc2cc(F)c(S(=O)(=O)Nc3ncns3)cc2F)C(c2cc(Cl)cc(Cl)c2)N1 (stereo in doubt; 66)	14		
O=S(=O)(Nc1ncns1)c1cc(F)c(CO[C@H]2OCCN[C@@H]2c2ccc(F)cc2)cc1F	2.5		
COc1ccccc1C1NCCOC1Oc1cc(F)c(S(=O)(=O)Nc2ncns2)cc1F (single isomer, unassigned; isomer B)	4.6	> 30	
O=S(=O)(Nc1ncns1)c1cc(F)c(OC2OCCNC2c2cccc3nccnc23)cc1F (single isomer, unassigned; isomer A)	6.6	> 30	
O=S(=O)(Nc1ncns1)c1cc(F)c(OC[C@H]2NCCO[C@@H]2c2ccc(Cl)cc2)cc1F	1.5		
CC1(C)CNC(c2cc(Cl)cc(Cl)c2)C(Oc2cc(F)c(S(=O)(=O)Nc3ncns3)cc2F)O1 (single isomer, unassigned; isomer A)	0.14		
CC1(C)CN[C@@H](c2cc(Cl)cc(Cl)c2)[C@H](Oc2cc(F)c(S(=O)(=O)Nc3ncns3)cc2F)O1	3.3		4.4
COc1ccccc1C1NCCOC1Oc1cc(F)c(S(=O)(=O)Nc2ncns2)cc1F (single isomer, unassigned; isomer A)	0.2		> 30
CC1(C)COC(Oc2cc(F)c(S(=O)(=O)Nc3ncns3)cc2F)C(c2ccc(Cl)cc2)N1 (single isomer, unassigned; isomer B)	0.58		
CC(C)[C@H]1COC(Oc2cc(F)c(S(=O)(=O)Nc3ncns3)cc2F)C(c2cc(Cl)cc(Cl)c2)N1 (single isomer, unassigned; isomer B)	1.1		
O=S(=O)(Nc1ncns1)c1cc(F)c(OC2OCCNC2c2ccc(C(F)(F)F)cc2)cc1F (single isomer, unassigned; isomer B)	9.7	> 30	
Cn1nc(C(F)(F)F)cc1C1NCCOC1Oc1cc(F)c(S(=O)(=O)Nc2ncns2)cc1F (single isomer, unassigned; isomer B)	4.5		> 30
O=S(=O)(Nc1ncns1)c1cc(F)c(OC2OCCNC2c2ccc(C(F)(F)F)cc2)cc1F (single isomer, unassigned; isomer A)	0.39		> 30
CC(C)C[C@@H]1COC(Oc2cc(F)c(S(=O)(=O)Nc3ncns3)cc2F)C(c2cc(Cl)cc(Cl)c2)N1 (single isomer, unassigned; isomer A)	1.7		
Cn1nccc1C1NCCOC1Oc1cc(F)c(S(=O)(=O)Nc2ncns2)cc1F (single isomer, unassigned; isomer A)	5.8	> 30	
CC(C)C[C@@H]1COC(Oc2cc(F)c(S(=O)(=O)Nc3ncns3)cc2F)C(c2cc(Cl)cc(Cl)c2)N1 (single isomer, unassigned; isomer B)	> 30		
CC(C)[C@@H]1COC(Oc2cc(F)c(S(=O)(=O)Nc3ncns3)cc2F)C(c2cc(Cl)cc(Cl)c2)N1 (single isomer, unassigned; isomer B)	25		
O=S(=O)(Nc1ncns1)c1cc(F)c(OC2OCCNC2c2cccc3nccnc23)cc1F (single isomer, unassigned; isomer B)	6.3		> 30
O=S(=O)(Nc1ncns1)c1cc(F)c(OC2OCCNC2c2cccc(C(F)(F)F)c2)cc1F (single isomer, unassigned; isomer B)	0.57		4.8
O=S(=O)(Nc1ncns1)c1cc(F)c(OC[C@H]2OCCN[C@@H]2c2ccc(Cl)cc2)cc1F	29		
CC(C)C[C@H]1COC(Oc2cc(F)c(S(=O)(=O)Nc3ncns3)cc2F)C(c2cc(Cl)cc(Cl)c2)N1 (stereo in doubt; 61)	6.5		
Cn1nccc1C1NCCOC1Oc1cc(F)c(S(=O)(=O)Nc2ncns2)cc1F (stereo in doubt; 55)	1.8		> 30
CC1(C)COC(Oc2cc(F)c(S(=O)(=O)Nc3ncns3)cc2F)C(c2ccc(Cl)cc2)N1 (single isomer, unassigned; isomer A)	0.35		
CC1(C)CNC(c2cc(Cl)cc(Cl)c2)C(Oc2cc(F)c(S(=O)(=O)Nc3ncns3)cc2F)O1 (single isomer, unassigned; isomer B)	0.45		
CC(C)C[C@H]1COC(Oc2cc(F)c(S(=O)(=O)Nc3ncns3)cc2F)C(c2cc(Cl)cc(Cl)c2)N1 (single isomer, unassigned; isomer A)	1.1		
O=S(=O)(Nc1ncns1)c1cc(F)c(OC2OCCNC2c2cccc(C(F)(F)F)c2)cc1F (single isomer, unassigned; isomer A)	0.31		0.58
CC(C)[C@H]1COC(Oc2cc(F)c(S(=O)(=O)Nc3ncns3)cc2F)C(c2cc(Cl)cc(Cl)c2)N1 (single isomer, unassigned; isomer A)	0.43		
CN(C)c1noc2ccc(C3NCCOC3Oc3cc(F)c(S(=O)(=O)Nc4ncns4)cc3F)cc12 (single isomer, unassigned; isomer B)	0.14		5

The next lines start with results.

IC50 [1] [µM]	SMILES	IC50 ([2]; hek293) [µM]	IC50 [2] [µM]
2.8	O=S(=O)(Nc1ncns1)c1cc(F)c(OC2OCCNC2c2ccc3ncccc3c2)cc1F (single isomer, unassigned; isomer A)	> 30	
1.5	N#Cc1ccc(C2NCCOC2Oc2cc(F)c(S(=O)(=O)Nc3ncns3)cc2F)cc1 (single isomer, unassigned; isomer A)		> 30
1.8	COc1ccc(C2NCCOC2Oc2cc(F)c(S(=O)(=O)Nc3ncns3)cc2F)cc1 (single isomer, unassigned; isomer B)	> 30	
11	N#Cc1cccc(C2NCCOC2Oc2cc(F)c(S(=O)(=O)Nc3ncns3)cc2F)c1 (single isomer, unassigned; isomer B)	> 30	
4	N#Cc1ccc(C2NCCOC2Oc2cc(F)c(S(=O)(=O)Nc3ncns3)cc2F)cc1 (single isomer, unassigned; isomer B)	> 30	
0.028	O=S(=O)(Nc1ncns1)c1cc(F)c(OC2OCCNC2c2cc(Cl)cc(Cl)c2)cc1F (single isomer, unassigned; isomer B)		5.6
15	O=S(=O)(Nc1ncns1)c1cc(F)c(OC2OCCNC2c2ccc(Cl)nc2)cc1F (single isomer, unassigned; isomer B)		> 30
0.26	O=S(=O)(Nc1ncns1)c1cc(F)c(OC2OCCNC2c2ccc(Cl)cc2Cl)cc1F (single isomer, unassigned; isomer A)		1.7
17	O=S(=O)(Nc1ncns1)c1cc(F)c(OC2OCCNC2c2ccc(Cl)nc2)cc1F (single isomer, unassigned; isomer A)	> 30	
0.81	COc1ccc(C2NCCOC2Oc2cc(F)c(S(=O)(=O)Nc3ncns3)cc2F)cc1 (single isomer, unassigned; isomer A)		> 30
1.2	O=S(=O)(Nc1ncns1)c1cc(F)c(OC2OCCNC2c2ccc(Cl)c(Cl)c2)cc1F (single isomer, unassigned; isomer A)		1
1.5	O=S(=O)(Nc1ncns1)c1cc(F)c(OC2OCCNC2c2ccc3c(c2)OCO3)cc1F (single isomer, unassigned; isomer A)	> 30	
0.92	N#Cc1cccc(C2NCCOC2Oc2cc(F)c(S(=O)(=O)Nc3ncns3)cc2F)c1 (single isomer, unassigned; isomer A)		> 30
1.1	O=S(=O)(Nc1ncns1)c1cc(F)c(OC2OCCNC2c2ccc3c(c2)OCO3)cc1F (single isomer, unassigned; isomer B)		> 30
0.39	COc1cccc(C2NCCOC2Oc2cc(F)c(S(=O)(=O)Nc3ncns3)cc2F)c1 (single isomer, unassigned; isomer A)		> 30
0.84	O=S(=O)(Nc1ncns1)c1cc(F)c(OC2OCCNC2c2cc(Cl)cc(Cl)c2)cc1F (single isomer, unassigned; isomer A)	5.6	
0.69	O=S(=O)(Nc1ncns1)c1cc(F)c(OC2OCCNC2c2ccc(F)cc2)cc1F (single isomer, unassigned; isomer A)		> 30
0.17	O=S(=O)(Nc1ncns1)c1cc(F)c(OC2OCCNC2c2ccc(Cl)c(Cl)c2)cc1F (single isomer, unassigned; isomer B)		3
1.6	O=S(=O)(Nc1ncns1)c1cc(F)c(OC2OCCNC2c2ccc3ncccc3c2)cc1F (single isomer, unassigned; isomer B)		> 30
1.4	O=S(=O)(Nc1ncns1)c1cc(F)c(OC2OCCNC2c2ccc3cnccc3c2)cc1F (single isomer, unassigned; isomer A)	> 30	
0.51	O=S(=O)(Nc1ncns1)c1cc(F)c(OC2OCCNC2c2ccc3cnccc3c2)cc1F (single isomer, unassigned; isomer B)		> 30
1.6	COc1cccc(C2NCCOC2Oc2cc(F)c(S(=O)(=O)Nc3ncns3)cc2F)c1 (single isomer, unassigned; isomer B)	> 30	

Source: ChEMBL document CHEMBL4184286, “Discovery of morpholine-based aryl sulfonamides as Nav1.7 inhibitors” (Bioorg Med Chem Lett, 2018)
